Reference: PubChem BioAssay (NCI)
Several values for one entry are separate records, joined by “and”; a condition that tells them apart may be missing. Equal values may be shown once.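 Following 48 hours of exposure in 96-well plates, responses at five concentrations were used to interpolate endpoints linearly. GI50 is the concentration that inhibits growth by half. Definition used: TGI = concentration required for complete inhibition of growth.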

Test system: MDA-MB-468 breast
Experiment: NCI-60 cell line screen, 48 h

SMILES | GI50 | TGI
CC[C@H](Nc1cc(C)nc(N)n1)c1nc2cccc(NCc3ccc(C(=O)NO)cc3)c2c(=O)n1-c1ccccc1 | 1460 nM | 3240 nM
COC(=O)c1ccc2[nH]c(O)c(C(=Nc3ccc(N(C)C(=O)CN4CCN(C)CC4)cc3)c3ccc(OC)cc3)c2c1 | 1600 nM | 3350 nM
CCOC(=O)c1ccc2c(c1)c1c(C)c3cnccc3c(C)c1n2C | 289 nM | 962 nM
CC(=O)O[C@H]1C(=O)[C@@]2(C)[C@H]([C@H](OC(=O)c3ccccc3)[C@]3(O)C[C@H](OC(=O)[C@H](OC(=O)OC[C@@H]4COC(C)(C)O4)[C@@H](NC(=O)c4ccccc4)c4ccccc4)C(C)=C1C3(C)C)[C@]1(OC(C)=O)CO[C@@H]1C[C@@H]2O | 28 nM | 
O=C(/C=C/c1cccc(O)c1)c1cccc(-n2cc(-c3ccc(Cl)cc3)[nH]c2=O)c1 | 1700 nM | 3830 nM
C=CCSSC1N=CNc2nc[nH]c21 (centres undefined) | 319 nM | 14700 nM
COc1cc(C(=O)/C=C/c2c(C)n([O-])c3ccc(C(F)(F)F)cc3[n+]2=O)cc(OC)c1OC | 1590 nM | 3490 nM
Cc1ccc2c(c1)c(C1=C(c3cn(C)c4ccccc34)C(=O)NC1=O)cn2C | 1030 nM | > 12600 nM
FC(F)(F)c1cc(Nc2cccc(Oc3ccc(NC4=NCCN4)nc3)c2)ccc1Cl | 1610 nM | 3440 nM
CC(=O)Nc1cccc(C#Cc2cncnc2Nc2ccc(OCc3cccc(F)c3)c(Cl)c2)n1 | 557 nM | > 6260 nM
COc1ccc(/C=C/C(=O)c2ccc(NC(=O)CSc3nnc(-c4ccc(OC)c(OC)c4)n3-c3ccccc3)cc2)cc1 | 1960 nM | 4550 nM
COC12COC(=O)C1C(c1ccc3c(c1)OCO3)c1cc3c(cc1O2)OCO3 (centres undefined) | 23000 nM | > 100000 nM
C[C@]12CC[C@@H]3c4ccc(O)cc4CC[C@H]3[C@@H]1CC[C@@H]2NS(=O)(=O)c1cccc(OC(F)(F)F)c1 | 2610 nM | 8010 nM
CCCc1n(Cc2ccc3ccccc3c2)c2ccccc2[n+]1Cc1ccc2ccccc2c1 | 130 nM | 716 nM
CN1CCN(Cc2ccc(NC(=O)c3cncc(C#Cc4cnc5ccc(N6CCN(C)CC6)nn45)c3)cc2C(F)(F)F)CC1 | 1380 nM | 2760 nM
C[C@@H]1CN(c2ccc3ncc(C#Cc4cncc(C(=O)Nc5ccc(CN6CCN(C)CC6)c(C(F)(F)F)c5)c4)n3n2)C[C@H](C)O1 | 35.5 nM | 136 nM
Clc1ccc(-c2ccc(CNCC3CCNCC3)o2)c(-c2ccccc2)c1 | 1570 nM | 3250 nM
CC/C(=C(\c1ccc(Cl)cc1)c1ccc(OCCN2CCCCC2)cc1)c1ccc(O)cc1 | 1650 nM | 3320 nM

SMILES | GI50 | TGI
Cc1cc2nc3c4cc(C=O)ccc4n(CCN(C)C)c3nc2cc1C | 1160 nM | 3210 nM
COc1ccc(C(O)c2cc3c(N)c(C(=O)Nc4ccc(Br)cc4)sc3nc2C)cc1 (centres undefined) | 2190 nM | 9090 nM
O=C1C=C(Nc2ccc([N+](=O)[O-])cc2)c2ccccc2C1=O | 3050 nM | 13400 nM
C=CC(=O)N1CC2(CCC(n3nc(-c4ccc(Oc5ccccc5)cc4)c4c(N)ncnc43)CC2)C1 | 244 nM | 1620 nM
CC(C)OC(=O)Nc1ccc(-c2nc(-c3cccc(OCCN4CCOCC4)c3)c(-c3ccnc(Br)c3)[nH]2)cc1 | 2010 nM | 5300 nM
O=C(Nc1ccc(OCc2nnc(-c3ccc(Cl)cc3)o2)c(F)c1)Nc1ccc(Cl)c(Cl)c1 | 2990 nM | 17700 nM
COc1ccc(C2C(C#N)=C(N)Oc3c2sc2c(C)cccc32)cc1 (centres undefined) | 214 nM | 641 nM
CCN(CC)CCNc1ccc(C)c2sc3ccccc3c(=O)c12 (tested in a mixture with another compound) | 2060 nM and 1980 nM | 4220 nM and 4300 nM
COC(=O)/C=C1/SC(=Nc2ccc(C(F)(F)F)cc2)N(CCc2c[nH]c3ccc(O)cc23)C1=O | 2110 nM | 5720 nM
CCCOC(=O)c1ccc2c(c1)[N+](=O)C(C(=O)c1ccccc1)=C(C(F)(F)F)[N+]2=O | 1710 nM | 3510 nM
CC(=O)N1CCN([C@H]2CCC[C@@H](NC(=O)c3cc4c(F)ccc(C)c4[nH]3)C2)CC1 | 9060 nM | 37200 nM
CCOC(=O)Nc1nc2cc(OC)c(OC)c(OC)c2s1 | > 100000 nM | > 100000 nM
Cn1cc(C2=C(c3cn(C)c4ccc(OCc5ccccc5)cc34)C(=O)NC2=O)c2ccccc21 | > 25000 nM | > 25000 nM
CC#CC#Cc1cccc(=O)o1 | 1710 nM | 5320 nM
Cc1ccc2cc3c(N)c4c(C)ccc(C)c4nc3nc2c1 | 1470 nM | 3730 nM
Nc1nonc1-c1nc2cnccc2n1C1CCCCC1 | 6940 nM | > 25000 nM
COC(=O)C(=Cc1ccccc1[N+](=O)[O-])C(=O)OC | 5030 nM | 28200 nM
